{"source": "patent US11845084B2", "about": "“Microchip high density hanging drop three-dimension culture platform” (The Board of Trustees of the University of Illinois, priority 2020, dated 2023)", "key": {"[1]": {"tested_on": "LN229 microcancer spheroids", "experiment": "On-chip drug testing of LN229 microcancer spheroids in microchip hanging drop 3D culture", "format": "cell-based", "details": "Homo sapiens, LN-229; measured on day 9 post cell seeding; drug loaded on day 3; 500 cells/well; 12 wells per concentration, 10 uM to 100 pM", "description": "In contrast, conventional hanging drop methods used to extract the formed tumor spheroids and then performing an end-point only analysis in a separate well plate. Dasatinib was selected for drug testing, and introduced after 3 days of culture in the chip. […] One process for introducing the drugs on chip is as follows. The chip was kept upright inside mineral oil and centrifuged briefly to bring down the spheroids. Next, appropriate volume of media with drugs is loaded on chip through oil and incubated for 30 minutes to reach a homogeneous concentration. […] The chip was partitioned as before by using oil, inverted, and daily measurements of green and red fluorescence were taken. […]\nThe total number of cells were extracted from the off-chip culture into a 1.7 mL tube and then centrifuged at 200 g for 5 min so that all cells settle to the bottom of the tube. […] To stop the PKH 26 Red Fluorescence staining, media with FBS was added to the cell and dye solution. […]\nSpheroid Imaging: Real time imaging was done daily after seeding with an upright Olympus BX63 fluorescence microscope with a 10× objective (0.3 NA). […] Tiles and Z-stacks of 10 um slice thickness of the area with spheroids or shapes were taken of chips in bright-field, GFP and RFP fluorescence wavelengths. The CellTox green fluorescence dye was captured using the GFP fluorescence and the PKH Red dye was captured using the RFP. […]"}, "[2]": {"tested_on": "PDX microcancers (GBM8 patient-derived xenograft glioblastoma cells)", "experiment": "On-chip drug testing of PDX microcancer spheroids in microchip hanging drop 3D culture", "format": "cell-based", "details": "Homo sapiens; measured on day 9 post cell seeding; drug loaded on day 3; 500 cells/well; 12 wells per concentration, 10 uM to 100 pM", "method": "The harvest cells from the xenograft represented the cellular diversity of the PDX brain tumor.\nDasatinib was selected for drug testing, and introduced after 3 days of culture in the chip. […] One process for introducing the drugs on chip is as follows. The chip was kept upright inside mineral oil and centrifuged briefly to bring down the spheroids. Next, appropriate volume of media with drugs is loaded on chip through oil and incubated for 30 minutes to reach a homogeneous concentration. The volume of drugs loaded depends on the number of spheroids being cultured or wells filled with media on chip, which in turn, are defined by the size and numbers of PDMS reservoirs initially used for cell seeding. The volume of media with drugs added is usually 5 times the volume of wells containing spheroids. […] The chip was partitioned as before by using oil, inverted, and daily measurements of green and red fluorescence were taken."}}, "note": "pIC50: −log10 of the molar value."}
{"smiles": "Cc1nc(Nc2ncc(C(=O)Nc3c(C)cccc3Cl)s2)cc(N2CCN(CCO)CC2)n1", "note": "[Dasatinib]", "values": [{"measurement": "pIC50", "setting": "[1]", "value": 7.02}, {"measurement": "pIC50", "setting": "[2]", "value": 7.86}]}
